Test results published in ChEMBL document CHEMBL1201862, “PubChem BioAssay data set” (2004).
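Values below derive from 48-hour exposures of cells grown in 96-well plates, with endpoints linearly interpolated between the two concentrations bracketing the appropriate inhibition level. GI50 marks 50% less growth.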 Activity calls are given as the source filed them. No stated cut-off is given here; in the data, active = GI50 up to about 1.1 µM and inactive = higher.

Assays:
Test in all cases: NCI anticancer screen, dose series, 48 h
MCF7 = tested on: MCF7
SK-MEL-28 = tested on: SK-MEL-28
UACC-257 = tested on: UACC-257
CCRF-CEM = tested on: CCRF-CEM
U-251 = tested on: U-251
NCI-H522 = tested on: NCI-H522
SK-MEL-2 = tested on: SK-MEL-2
A549 = tested on: A549
DU-145 = tested on: DU-145
LOX IMVI = tested on: LOX IMVI
OVCAR-4 = tested on: OVCAR-4
MOLT-4 = tested on: MOLT-4
COLO 205 = tested on: COLO 205
PC-3 = tested on: PC-3
UO-31 = tested on: UO-31
EKVX = tested on: EKVX
HOP-92 = tested on: HOP-92
HT-29 = tested on: HT-29
RPMI-8226 = tested on: RPMI-8226
CAKI-1 = tested on: CAKI-1

SMILES	GI50 (MCF7)	GI50 (SK-MEL-28)	GI50 (UACC-257)	GI50 (CCRF-CEM)	GI50 (U-251)	GI50 (NCI-H522)	GI50 (SK-MEL-2)	GI50 (A549)	GI50 (DU-145)	GI50 (LOX IMVI)	GI50 (OVCAR-4)	GI50 (MOLT-4)	GI50 (COLO 205)	GI50 (PC-3)	GI50 (UO-31)	GI50 (EKVX)	GI50 (HOP-92)	GI50 (HT-29)	GI50 (RPMI-8226)	GI50 (CAKI-1)
COC(=O)C(CCC(=O)CCl)N1C(=O)c2ccccc2C1=O (stereo not given)	4.57 µM (inactive)	10.7 µM (inactive)	7.18 µM (inactive)	1.67 µM (inactive)	14.4 µM (inactive)	1.73 µM (inactive)	6.9 µM (inactive)	17.7 µM (inactive)	16.9 µM (inactive)	1.57 µM (inactive)	14.8 µM (inactive)	2.38 µM (inactive)	15.6 µM (inactive)	12.9 µM (inactive)	14.4 µM (inactive)	19.9 µM (inactive)	5.78 µM (inactive)	9.64 µM (inactive)	3.37 µM (inactive)	15.2 µM (inactive)
CCOC(=O)/C(C(=S)NCc1ccccc1)=C(/N)N1CCCC1	> 100 µM (inactive)	> 100 µM (inactive)	> 100 µM (inactive)	> 100 µM (inactive)	> 100 µM (inactive)	> 100 µM (inactive)	> 100 µM (inactive)	> 100 µM (inactive)	> 100 µM (inactive)	> 100 µM (inactive)	> 100 µM (inactive)	> 100 µM (inactive)	> 100 µM (inactive)	> 100 µM (inactive)	56.9 µM (inactive)	> 100 µM (inactive)	> 100 µM (inactive)	> 100 µM (inactive)	> 100 µM (inactive)	> 100 µM (inactive)
CC1(CCc2ccccc2)CC1(Br)Br (stereo not given)	38.8 µM (inactive)	> 100 µM (inactive)	25.8 µM (inactive)	23.6 µM (inactive)	31.4 µM (inactive)	23 µM (inactive)	17.8 µM (inactive)	32.9 µM (inactive)	57.9 µM (inactive)	20.5 µM (inactive)	30.3 µM (inactive)	23.4 µM (inactive)	20.8 µM (inactive)	40.8 µM (inactive)	39.4 µM (inactive)	19.1 µM (inactive)	13 µM (inactive)	30.4 µM (inactive)	18.6 µM (inactive)	56.5 µM (inactive)
Brc1ccc2[nH]cc(-c3csc(-c4ccccn4)n3)c2c1	10.3 µM (inactive)	53.1 µM (inactive)	23 µM (inactive)	13.2 µM (inactive)	13.5 µM (inactive)	8.95 µM (inactive)	44.8 µM (inactive)	14.5 µM (inactive)	17.9 µM (inactive)	8.69 µM (inactive)	14.4 µM (inactive)	5.28 µM (inactive)	13.4 µM (inactive)	14.2 µM (inactive)	59.7 µM (inactive)	9.44 µM (inactive)	20.8 µM (inactive)	5.12 µM (inactive)	7.8 µM (inactive)	17.1 µM (inactive)
O=C(c1ccc(Cl)cc1)N1N=C(c2ccc(Cl)cc2)CC1(O)c1cc(F)c(Cl)cc1Cl (stereo not given)	7.14 µM (inactive)	44.3 µM (inactive)	25.7 µM (inactive)	18.7 µM (inactive)	15.5 µM (inactive)	12.9 µM (inactive)	17 µM (inactive)	19.6 µM (inactive)	27.3 µM (inactive)	15.2 µM (inactive)	12.8 µM (inactive)	9.25 µM (inactive)	18.4 µM (inactive)	10.4 µM (inactive)	9.06 µM (inactive)	8.59 µM (inactive)	11.6 µM (inactive)	8.95 µM (inactive)	8.22 µM (inactive)	13.8 µM (inactive)
CCN(CC)CC/N=c1\c2cc(OC)ccc2[nH]c2c([N+](=O)[O-])ccc(NCCN(CC)CC)c12	0.698 µM (active)	4.11 µM (inactive)	4.17 µM (inactive)	0.258 µM (active)	1.24 µM (inactive)	1.14 µM (inactive)	2.06 µM (inactive)	1.05 µM (active)	2.37 µM (inactive)	0.794 µM (active)	1.15 µM (inactive)	0.198 µM (active)	0.875 µM (active)	0.706 µM (active)	1.17 µM (inactive)	1.93 µM (inactive)	1.83 µM (inactive)	0.7 µM (active)	0.451 µM (active)	2.33 µM (inactive)
O=C1Nc2ccccc2/C1=N/NC(=S)NCc1ccccn1	< 0.01 µM (active)	2.36 µM (inactive)	0.47 µM (active)	< 0.01 µM (active)	0.0724 µM (active)	0.17 µM (active)	2.9 µM (inactive)	0.466 µM (active)	0.698 µM (active)	0.371 µM (active)	1.33 µM (inactive)	< 0.01 µM (active)	< 0.01 µM (active)	0.0508 µM (active)	0.373 µM (active)	0.294 µM (active)	1.11 µM (active)	0.0462 µM (active)	< 0.01 µM (active)	0.0951 µM (active)
C=CCN1C(=O)/C(=C\c2cc(C(C)(C)C)c(O)c(C(C)(C)C)c2)NC1=S	20.7 µM (inactive)	30.6 µM (inactive)	15.6 µM (inactive)	0.879 µM (active)	14.3 µM (inactive)	12.4 µM (inactive)	14.1 µM (inactive)	24.3 µM (inactive)	21.2 µM (inactive)	16.4 µM (inactive)	19.3 µM (inactive)	30.7 µM (inactive)	16.9 µM (inactive)	14.2 µM (inactive)	28.8 µM (inactive)	19.9 µM (inactive)	28.9 µM (inactive)	17.3 µM (inactive)	7.87 µM (inactive)	22.3 µM (inactive)
